Test results as given in ChEMBL document CHEMBL5291721, “A preclinical secondary pharmacology resource illuminates target-adverse drug reaction associations of marketed drugs” (Nat Commun, 2023).
Several values for one entry are separate records, joined by “and”; a condition that tells them apart may be missing. Identical values can stand only once.

Columns and labels:
Glucocorticoid receptor = target: T1, Glucocorticoid receptor (Homo sapiens, UniProt P04150)
T1 sequence (P04150 whole entry): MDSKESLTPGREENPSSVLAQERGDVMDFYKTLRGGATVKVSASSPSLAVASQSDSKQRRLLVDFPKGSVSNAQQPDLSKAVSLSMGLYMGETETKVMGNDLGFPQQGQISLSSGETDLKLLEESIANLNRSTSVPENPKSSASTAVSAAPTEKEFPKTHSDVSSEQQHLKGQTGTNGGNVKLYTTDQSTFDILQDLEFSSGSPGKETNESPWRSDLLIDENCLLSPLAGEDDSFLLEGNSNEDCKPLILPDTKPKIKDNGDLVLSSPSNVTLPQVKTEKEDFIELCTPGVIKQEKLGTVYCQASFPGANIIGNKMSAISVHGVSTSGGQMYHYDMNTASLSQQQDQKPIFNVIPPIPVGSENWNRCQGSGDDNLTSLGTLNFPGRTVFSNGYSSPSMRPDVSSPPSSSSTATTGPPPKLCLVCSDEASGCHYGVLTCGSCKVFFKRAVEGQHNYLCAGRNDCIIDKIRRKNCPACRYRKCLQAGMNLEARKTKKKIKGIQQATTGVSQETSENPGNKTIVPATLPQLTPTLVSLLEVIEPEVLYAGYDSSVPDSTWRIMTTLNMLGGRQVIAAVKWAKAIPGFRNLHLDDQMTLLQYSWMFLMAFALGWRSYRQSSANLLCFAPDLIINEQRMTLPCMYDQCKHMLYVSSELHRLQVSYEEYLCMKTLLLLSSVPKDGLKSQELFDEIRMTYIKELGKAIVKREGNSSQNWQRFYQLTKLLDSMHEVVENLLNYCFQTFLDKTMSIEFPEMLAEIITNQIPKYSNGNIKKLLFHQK

[1] = target: T2, 5-hydroxytryptamine receptor 3A (Homo sapiens, UniProt P46098); type: functional
T2 sequence (P46098 whole entry): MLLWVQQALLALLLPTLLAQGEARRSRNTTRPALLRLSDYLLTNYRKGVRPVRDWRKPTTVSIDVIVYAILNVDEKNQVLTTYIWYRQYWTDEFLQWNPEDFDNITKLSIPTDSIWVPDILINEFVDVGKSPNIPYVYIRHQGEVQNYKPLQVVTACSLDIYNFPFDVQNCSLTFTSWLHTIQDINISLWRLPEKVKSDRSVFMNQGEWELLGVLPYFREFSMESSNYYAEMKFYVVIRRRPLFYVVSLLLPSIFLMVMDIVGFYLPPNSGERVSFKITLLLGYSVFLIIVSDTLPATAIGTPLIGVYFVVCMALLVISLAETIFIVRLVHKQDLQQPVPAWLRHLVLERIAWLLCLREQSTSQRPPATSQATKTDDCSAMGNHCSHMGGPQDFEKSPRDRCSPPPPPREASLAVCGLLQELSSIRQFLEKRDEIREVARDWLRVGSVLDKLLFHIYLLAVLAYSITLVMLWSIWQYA

[2] = target: Beta-1 adrenergic receptor (Homo sapiens, UniProt P08588); type: functional
[3] = target: Sodium-dependent noradrenaline transporter (Homo sapiens, UniProt P23975)
Thromboxane A2 receptor = target: T3, Thromboxane A2 receptor (Homo sapiens, UniProt P21731)
T3 sequence (P21731 whole entry): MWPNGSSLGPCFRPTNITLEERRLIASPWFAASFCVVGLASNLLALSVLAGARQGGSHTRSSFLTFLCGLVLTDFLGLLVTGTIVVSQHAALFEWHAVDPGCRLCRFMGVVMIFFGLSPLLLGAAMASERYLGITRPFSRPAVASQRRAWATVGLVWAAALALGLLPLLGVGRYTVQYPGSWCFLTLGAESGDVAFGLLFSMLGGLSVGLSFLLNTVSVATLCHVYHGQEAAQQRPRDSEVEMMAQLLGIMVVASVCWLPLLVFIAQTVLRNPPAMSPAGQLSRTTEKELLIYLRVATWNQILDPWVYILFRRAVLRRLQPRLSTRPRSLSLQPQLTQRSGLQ

[4] = target: T4, Cholecystokinin receptor type A (Homo sapiens, UniProt P32238)
T4 sequence (P32238 whole entry): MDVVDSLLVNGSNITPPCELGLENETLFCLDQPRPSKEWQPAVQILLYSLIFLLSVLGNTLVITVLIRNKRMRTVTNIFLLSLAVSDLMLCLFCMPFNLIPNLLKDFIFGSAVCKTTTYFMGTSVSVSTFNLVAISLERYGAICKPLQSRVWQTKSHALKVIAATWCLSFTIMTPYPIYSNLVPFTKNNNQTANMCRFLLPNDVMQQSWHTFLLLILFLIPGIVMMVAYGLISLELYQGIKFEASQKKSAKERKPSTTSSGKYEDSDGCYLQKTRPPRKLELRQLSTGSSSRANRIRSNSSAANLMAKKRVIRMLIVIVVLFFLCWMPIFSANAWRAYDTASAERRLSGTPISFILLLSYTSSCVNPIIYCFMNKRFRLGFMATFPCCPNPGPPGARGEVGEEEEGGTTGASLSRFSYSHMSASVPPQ

Adenosine receptor A3 = target: T5, Adenosine receptor A3 (Homo sapiens, UniProt P0DMS8)
T5 sequence (P0DMS8 whole entry): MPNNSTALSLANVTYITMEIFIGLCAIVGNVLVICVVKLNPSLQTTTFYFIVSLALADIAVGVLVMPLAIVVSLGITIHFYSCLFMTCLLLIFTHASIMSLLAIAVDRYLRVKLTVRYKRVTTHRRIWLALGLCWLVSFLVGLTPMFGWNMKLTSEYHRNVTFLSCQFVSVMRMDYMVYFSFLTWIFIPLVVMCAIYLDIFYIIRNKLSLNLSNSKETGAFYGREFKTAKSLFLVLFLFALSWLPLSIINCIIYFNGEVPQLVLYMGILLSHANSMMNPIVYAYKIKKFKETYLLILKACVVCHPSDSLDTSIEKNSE

[5] = target: Kappa-type opioid receptor (Homo sapiens, UniProt P41145)
[6] = target: Muscarinic acetylcholine receptor M3 (Homo sapiens, UniProt P20309)
[7] = target: Delta-type opioid receptor (Homo sapiens, UniProt P41143)
Note: assay procedure not described here.

Sequence of Sodium-dependent noradrenaline transporter (P23975 whole entry): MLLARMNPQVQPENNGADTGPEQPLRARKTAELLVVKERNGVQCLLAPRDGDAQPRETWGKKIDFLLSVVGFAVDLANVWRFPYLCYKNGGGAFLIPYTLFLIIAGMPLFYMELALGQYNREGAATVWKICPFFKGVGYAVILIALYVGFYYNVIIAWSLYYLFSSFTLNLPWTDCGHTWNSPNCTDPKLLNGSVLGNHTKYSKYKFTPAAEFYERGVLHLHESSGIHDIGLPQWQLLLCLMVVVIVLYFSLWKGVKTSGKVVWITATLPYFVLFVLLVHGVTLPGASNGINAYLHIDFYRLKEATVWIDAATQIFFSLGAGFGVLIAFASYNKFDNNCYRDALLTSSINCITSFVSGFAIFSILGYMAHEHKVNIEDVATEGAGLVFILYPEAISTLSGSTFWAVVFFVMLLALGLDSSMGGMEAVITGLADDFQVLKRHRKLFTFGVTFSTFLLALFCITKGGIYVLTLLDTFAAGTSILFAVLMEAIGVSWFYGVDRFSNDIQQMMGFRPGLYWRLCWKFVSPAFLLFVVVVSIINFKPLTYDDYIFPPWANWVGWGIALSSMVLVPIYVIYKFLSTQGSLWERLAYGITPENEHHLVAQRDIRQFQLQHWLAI
Sequence of Delta-type opioid receptor (P41143 whole entry): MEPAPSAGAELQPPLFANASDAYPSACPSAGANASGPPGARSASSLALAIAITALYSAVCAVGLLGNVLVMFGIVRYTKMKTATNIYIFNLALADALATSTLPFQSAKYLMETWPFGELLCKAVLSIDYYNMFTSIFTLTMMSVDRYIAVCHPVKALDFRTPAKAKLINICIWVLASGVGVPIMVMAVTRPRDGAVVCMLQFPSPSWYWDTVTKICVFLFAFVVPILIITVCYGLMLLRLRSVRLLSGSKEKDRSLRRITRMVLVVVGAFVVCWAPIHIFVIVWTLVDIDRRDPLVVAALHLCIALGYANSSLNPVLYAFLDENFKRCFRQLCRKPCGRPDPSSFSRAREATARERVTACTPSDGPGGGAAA
Sequence of Beta-1 adrenergic receptor (P08588 whole entry): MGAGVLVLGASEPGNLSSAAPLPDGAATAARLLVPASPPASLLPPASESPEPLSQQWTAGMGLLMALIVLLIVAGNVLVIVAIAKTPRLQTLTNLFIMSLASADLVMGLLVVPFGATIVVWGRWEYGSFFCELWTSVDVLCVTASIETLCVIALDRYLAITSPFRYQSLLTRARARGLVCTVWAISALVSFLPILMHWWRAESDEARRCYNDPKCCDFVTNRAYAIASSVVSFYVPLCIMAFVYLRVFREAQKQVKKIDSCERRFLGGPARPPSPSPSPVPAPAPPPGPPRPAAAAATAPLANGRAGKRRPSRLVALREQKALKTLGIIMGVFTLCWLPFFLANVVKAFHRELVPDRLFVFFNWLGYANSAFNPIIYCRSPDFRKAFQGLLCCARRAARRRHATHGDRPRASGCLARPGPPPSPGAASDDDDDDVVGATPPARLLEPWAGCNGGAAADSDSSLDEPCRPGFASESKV
Sequence of Muscarinic acetylcholine receptor M3 (P20309 whole entry): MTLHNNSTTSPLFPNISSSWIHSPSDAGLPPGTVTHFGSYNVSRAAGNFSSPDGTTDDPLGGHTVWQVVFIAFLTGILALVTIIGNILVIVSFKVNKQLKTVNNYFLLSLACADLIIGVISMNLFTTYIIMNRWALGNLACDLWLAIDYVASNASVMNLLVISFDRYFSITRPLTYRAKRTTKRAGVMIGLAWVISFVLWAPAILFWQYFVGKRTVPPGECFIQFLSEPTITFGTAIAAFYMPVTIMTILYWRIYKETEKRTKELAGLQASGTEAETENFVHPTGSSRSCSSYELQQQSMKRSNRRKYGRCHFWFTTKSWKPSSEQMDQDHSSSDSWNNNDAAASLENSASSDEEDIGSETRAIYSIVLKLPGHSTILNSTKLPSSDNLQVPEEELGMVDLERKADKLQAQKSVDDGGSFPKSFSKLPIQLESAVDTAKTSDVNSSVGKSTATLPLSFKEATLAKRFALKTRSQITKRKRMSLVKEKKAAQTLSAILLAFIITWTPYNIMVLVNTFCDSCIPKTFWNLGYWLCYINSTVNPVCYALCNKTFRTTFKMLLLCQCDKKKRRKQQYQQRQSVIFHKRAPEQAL
Sequence of Kappa-type opioid receptor (P41145 whole entry): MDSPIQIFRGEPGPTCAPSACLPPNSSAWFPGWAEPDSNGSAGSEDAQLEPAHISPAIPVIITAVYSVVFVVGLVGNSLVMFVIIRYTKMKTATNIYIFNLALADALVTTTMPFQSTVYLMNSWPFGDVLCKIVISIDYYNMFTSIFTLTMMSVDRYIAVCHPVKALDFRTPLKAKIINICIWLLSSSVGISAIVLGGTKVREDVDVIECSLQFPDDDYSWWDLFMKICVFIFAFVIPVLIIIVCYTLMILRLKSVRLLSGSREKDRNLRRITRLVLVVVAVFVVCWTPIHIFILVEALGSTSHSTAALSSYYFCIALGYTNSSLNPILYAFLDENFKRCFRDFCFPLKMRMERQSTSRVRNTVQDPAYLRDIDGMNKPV

Row | Structure (SMILES) | AC50 (Glucocorticoid receptor) [µM] | AC50 [1] [µM] | AC50 [2] [µM] | AC50 [3] | AC50 (Thromboxane A2 receptor) [µM] | AC50 [4] [µM] | AC50 (Adenosine receptor A3) [µM] | AC50 [5] [µM] | AC50 [6] [µM] | AC50 [7] [µM]
1 | CC(NCCc1ccc(O)cc1)C(O)c1ccc(O)cc1 (stereo not given) [RITODRINE] | > 30 | > 30 | 17 | 23 µM and 37.6 µM | > 30 | > 30 | > 30 | 14.4 | > 30 | > 30
2 | CN1c2ccccc2C(NCCCCCCC(=O)O)c2ccc(Cl)cc2S1(=O)=O (stereo not given) [TIANEPTINE] | > 30 | > 30 | > 30 | > 30 µM | > 30 | > 30 | > 30 | > 30 | > 30 | 28
3 | C=CC(N)CCC(=O)O (stereo not given) [VIGABATRIN] | > 10 | > 30 | > 10 | 21.7 µM | > 10 | > 10 | > 10 | > 10 | > 30 | > 30
4 | N#C[C@@H]1CCCN1C(=O)CNC12CC3CC(CC(O)(C3)C1)C2 [VILDAGLIPTIN] | > 30 | > 30 | > 10 | > 30 µM | > 30 | > 30 | > 30 | > 30 | > 30 | > 30
